Consider 17 compounds from US12421212B2, “Substituted benzenecarboxamides as IL-17A modulators” (DiCE Alpha, Inc., priority 2019, dated 2025).

The target in one test is T1, IL-17A/A (Homo sapiens, UniProt Q16552).
T1 construct: purchased Genscript Z03228
T1 sequence (Q16552 24-155): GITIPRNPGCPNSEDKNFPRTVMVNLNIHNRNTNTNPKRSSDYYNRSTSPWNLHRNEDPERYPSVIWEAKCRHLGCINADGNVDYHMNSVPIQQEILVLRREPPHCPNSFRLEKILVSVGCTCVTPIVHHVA
Briefly: IL-17A/A HEK-Blue Cell Assay. Format: cell-based. To be noted: HEK-Blue IL-17A reporter cell line, SEAP readout at A630, 20 hours incubation with IL-17A/A; top concentration 10 uM, 1 uM or 0.3 uM. How it is done:
The HEK-Blue IL-17A reporter cell line (Fisher #NC1408637) was used for cell-based IL-17A/A inhibition assays. Cells were grown and prepared for assays according to the manufacturer's instructions. This cell line consists of HEK 293 cells that were designed to expressed IL-17RA, IL-17RC, and the ActI adapter molecule, the combination of which, when stimulated by IL-17A/A activates a NFκB promoter and drives expression of a recombinant Secreted Alkaline Phosphatase (SEAP) geneprotein. Media from the cells is then added to a development reagent (Quanti-Blue Substrate, Fisher #NC9711613), and read at A630.
Compounds were titrated in DMSO, with a top final compound concentration of 10 uM, 1 uM, or 0.3 uM, and added to the cells immediately before adding IL-17A/A (Genscript #Z03228). The cells, compound, and IL-17A/A were then incubated for 20 hours before media was removed for SEAP analysis. The resulting inhibition curve was then analyzed using Graphpad Prism 7.0, and IC50 values were determined using a 4-parameter nonlinear fit. DMSO was added to a universal final concentration of 0.1% to optimize background.
In the case of `CCC(=O)N[C@@H](C(=O)N1CCN(C)CC1)[C@@H](C)c1ccc(NC(=O)[C@@H](NC(=O)C(F)(F)C2CC2)C2CCCCC2)c(F)c1` [Compound 242], the “IL-17A/A inhibition (pIC50)” value is “X2b (compounds were evaluated up to 1 uM and inhibited activity at 1 uM by less than 20%)”.

With `CCc1nonc1C(=O)N[C@H](C(=O)Nc1ccc([C@H](C)[C@@H](NC(=O)c2ncns2)C(=O)N2CCN(C)CC2)cc1F)[C@H]1CC[C@H](C)CC1` [Compound 575], the “IL-17A/A inhibition (pIC50)” value is “X3a (compounds were evaluated up to 0.3 uM and did not inhibit activity by >80%, however they showed some activity at 0.3 uM (less than 80% and more than 20%))”.

On to `CCC(=O)N[C@@H](C(=O)N1CCN(C)CC1)[C@@H](C)c1ccc(NC(=O)[C@@H](NC(=O)c2csc3cncnc23)C2CCCCC2)c(F)c1` [Compound 754], for which the “IL-17A/A inhibition (pIC50)” value is “X2b (compounds were evaluated up to 1 uM and inhibited activity at 1 uM by less than 20%)”.

The same test, now with this note: HEK-Blue IL-17A reporter cell line, SEAP readout at A630, 20 hours incubation with IL-17A/A; top concentration 10 uM, 1 uM or 0.3 uM; read-out: IL-17A/A inhibition (pIC50) (converted).
With `CCC(=O)N[C@@H](C(=O)N1CCC(C)(O)CC1)[C@@H](C)c1ccc(NC(=O)[C@@H](NC(=O)C(F)(F)c2cnn(CC)c2)[C@H]2CC[C@H](C)CC2)c(F)c1` [Compound 533], the IC50 was less than 10 nM.

Take `CCC(=O)N[C@@H](C(=O)N1CCN(C)CC1)[C@@H](C)c1ccc(NC(=O)[C@@H](NC(=O)C(F)(F)c2csc(C)c2)C2CCCCCC2)c(F)c1` [Compound 265]: the IC50 is less than 10 nM.

With `CCn1nccc1C(=O)N[C@H](C(=O)Nc1ccc([C@H](C)[C@@H](NC(=O)NC(C)C)C(=O)N2CCN(C)CC2)cc1F)C1CCCCCC1` [Compound 327], the IC50 was 10 to 100 nM.

With `CCC(=O)N[C@@H](C(=O)N1CCN(C)CC1)[C@@H](C)c1ccc(NC(=O)C(NC(=O)c2nonc2CC)C2CCc3cc(F)ccc32)c(F)c1` (single isomer, unassigned) [Compound 569], the IC50 is 100 to 10000 nM.

In the case of `CCC(=O)N[C@@H](C(=O)N1CCN(C)CC1)[C@@H](C)c1ccc(NC(=O)[C@@H](NC(=O)C(F)(F)c2ccc(OC)nc2)C2CCC(F)(F)CC2)c(F)c1` [Compound 220], the IC50 was 10 to 100 nM.

On to `CCC(=O)N[C@@H](C(=O)N1CCN(C)CC1)[C@@H](C)c1ccc(NC(=O)[C@@H](NC(=O)C(F)(F)c2cncc(C#N)c2)[C@H]2CC[C@H](C)CC2)c(F)c1` [Compound 530], for which the IC50 was less than 10 nM.

Regarding `CCC(=O)N[C@@H](C(=O)N1CCN(C)CC1)[C@@H](C)c1ccc(NC(=O)[C@@H](NC(=O)C(F)(F)c2cccc(OC)c2)C2CCCCC2)c(F)c1` [Compound 243], the IC50 was 10 to 100 nM.

Take `[2H]C([2H])([2H])N1CCN(C(=O)[C@H](NC(=O)CC)[C@@H](C)c2ccc(NC(=O)[C@@H](NC(=O)c3ccnn3CC)[C@H]3CC[C@H](C)CC3)c(F)c2)CC1` [Compound 539]: the IC50 is less than 10 nM.

For `CCC(=O)N[C@@H](C(=O)N1CCC(O)CC1)[C@@H](C)c1ccc(NC(=O)[C@@H](NC(=O)c2ccnn2CC)[C@H]2CC[C@H](C)CC2)c(F)c1` [Compound 374], the IC50 is 10 to 100 nM.

Turning to `CCC(=O)N[C@H](Cc1ccc(NC(=O)[C@@H](NC(=O)c2coc3ccc(OC)cc23)C2CCCCC2)c(F)c1)C(=O)N1CCN(C)CC1` [Compound 671], the IC50 is 100 to 10000 nM.

For `CCC(=O)N[C@@H](C(=O)N1C[C@@H](C)N[C@@H](C)C1)[C@@H](C)c1ccc(NC(=O)[C@@H](NC(=O)c2nonc2CC)[C@H]2CC[C@H](C)CC2)c(F)c1` [Compound 447], the IC50 was 10 to 100 nM.

For `CCn1nccc1C(=O)N[C@H](C(=O)Nc1ccc([C@H](C)[C@@H](NC(=O)[C@@H](C)F)C(=O)N2CCN(C)CC2)cc1F)[C@H]1CC[C@H](C)CC1` [Compound 470], the IC50 was 10 to 100 nM.

On to `CCC(=O)N[C@@H](C(=O)N1CCC(C)(O)CC1)[C@@H](C)c1ccc(NC(=O)[C@@H](NC(=O)C(F)(F)c2cccc(C#N)c2)C2CCCCC2)c(F)c1` [Compound 364], for which the IC50 was less than 10 nM.

As to `CCn1nccc1C(=O)N[C@H](C(=O)Nc1ccc([C@H](C)[C@@H](NC(=O)c2c[nH]c(=O)[nH]2)C(=O)N2CCN(C)CC2)cc1F)C1CCCCC1` [Compound 681], the IC50 is 100 to 10000 nM.
